Test system: 565726-208-R1-J5-PDC complex spheroids, growth inhibition
Assay: Anticancer human tumor 565726-208-R1-J5-PDC patient-derived pancreatic adenocarcinoma cell line growth inhibition [RAS]
Conditions: for IC50: curve of first compound; for viability, T/C: stronger effect = lower value; active = viability on the fitted dose curve at most 10% of control; inactive = the rest
Outline: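 Agents were tested in combination matrices in half-log decrements from a top concentration at or near clinical Cmax (10 microM if undetermined). Targets were multi-cell spheroids of tumour lines plus HUVEC and MSC stromal cells.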

[1] = second compound 0.00316 µM, first compound 0.0316 µM
[2] = second compound 0.00316 µM, first compound 0.1 µM
[3] = second compound 0.00316 µM, first compound 0.316 µM
[4] = second compound 0.00316 µM, first compound 1 µM
[5] = second compound 0.00316 µM, first compound 3.16 µM
[6] = second compound 0.00316 µM, first compound 10 µM
[7] = second compound 0.01 µM, first compound 0.0316 µM
[8] = second compound 0.01 µM, first compound 0.1 µM
[9] = second compound 0.01 µM, first compound 0.316 µM
[10] = second compound 0.01 µM, first compound 1 µM
[11] = second compound 0.01 µM, first compound 3.16 µM
[12] = second compound 0.01 µM, first compound 10 µM
[13] = second compound 0.0316 µM, first compound 0.0316 µM
[14] = second compound 0.0316 µM, first compound 0.1 µM
[15] = second compound 0.0316 µM, first compound 0.316 µM
[16] = second compound 0.0316 µM, first compound 1 µM
[17] = second compound 0.0316 µM, first compound 3.16 µM
[18] = second compound 0.0316 µM, first compound 10 µM
[19] = second compound 0.1 µM, first compound 0.0316 µM
[20] = second compound 0.1 µM, first compound 0.1 µM
[21] = second compound 0.1 µM, first compound 0.316 µM
[22] = second compound 0.1 µM, first compound 1 µM
[23] = second compound 0.1 µM, first compound 3.16 µM
[24] = second compound 0.1 µM, first compound 10 µM
[25] = second compound 0.316 µM, first compound 0.0316 µM
[26] = second compound 0.316 µM, first compound 0.1 µM
[27] = second compound 0.316 µM, first compound 0.316 µM
[28] = second compound 0.316 µM, first compound 1 µM
[29] = second compound 0.316 µM, first compound 3.16 µM
[30] = second compound 0.316 µM, first compound 10 µM
[31] = second compound 1 µM, first compound 0.0316 µM
[32] = second compound 1 µM, first compound 0.1 µM
[33] = second compound 1 µM, first compound 0.316 µM
[34] = second compound 1 µM, first compound 1 µM
[35] = second compound 1 µM, first compound 3.16 µM
[36] = second compound 1 µM, first compound 10 µM
[37] = second compound 0.00316 µM, first compound 0.00316 µM
[38] = second compound 0.00316 µM, first compound 0.01 µM
[39] = second compound 0.01 µM, first compound 0.00316 µM
[40] = second compound 0.01 µM, first compound 0.01 µM
[41] = second compound 0.0316 µM, first compound 0.00316 µM
[42] = second compound 0.0316 µM, first compound 0.01 µM
[43] = second compound 0.1 µM, first compound 0.00316 µM
[44] = second compound 0.1 µM, first compound 0.01 µM
[45] = second compound 0.316 µM, first compound 0.00316 µM
[46] = second compound 0.316 µM, first compound 0.01 µM
[47] = second compound 1 µM, first compound 0.00316 µM
[48] = second compound 1 µM, first compound 0.01 µM
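Also: spheroids exposed to compounds for seven days before readout.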
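For viability, T/C in this document: 100% = DMSO vehicle control viability.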

CC(C)NCC(C(=O)N1CCN(c2ncnc3c2C(C)CC3O)CC1)c1ccc(Cl)cc1 (stereo not given) + C=CC(=O)N1CCN(c2nc(OCC3CCCN3C)nc3c(F)c(-c4nc(N)cc(C)c4C(F)(F)F)c(Cl)cc23)C(C)C1
> 10000 nM: IC50 (second compound 0.00316 µM) | IC50 (second compound 0.01 µM) | IC50 (second compound 0.0316 µM) | IC50 (second compound 0.1 µM) | IC50 (second compound 0.316 µM) | IC50 (second compound 1 µM)
inactive: viability, T/C [1] 90.5% | viability, T/C [2] 152% | viability, T/C [3] 89% | viability, T/C [4] 91% | viability, T/C [5] 93.3% | viability, T/C [6] 110% | viability, T/C [7] 133% | viability, T/C [8] 153% | viability, T/C [9] 91% | viability, T/C [10] 78.3% | viability, T/C [11] 104% | viability, T/C [12] 127% | viability, T/C [13] 125% | viability, T/C [14] 160% | viability, T/C [15] 90.2% | viability, T/C [16] 89.8% | viability, T/C [17] 93.5% | viability, T/C [18] 125% | viability, T/C [19] 176% | viability, T/C [20] 154% | viability, T/C [21] 93.1% | viability, T/C [22] 85.4% | viability, T/C [23] 80.6% | viability, T/C [24] 120% | viability, T/C [25] 147% | viability, T/C [26] 153% | viability, T/C [27] 88.5% | viability, T/C [28] 96.6% | viability, T/C [29] 73.4% | viability, T/C [30] 118% | viability, T/C [31] 175% | viability, T/C [32] 155% | viability, T/C [33] 130% | viability, T/C [34] 95.1% | viability, T/C [35] 80.7% | viability, T/C [36] 95.9%

CC(C)n1nc(-c2ccc3oc(N)nc3c2)c2c(N)ncnc21 + C=CC(=O)N1CCN(c2nc(OCC3CCCN3C)nc3c(F)c(-c4nc(N)cc(C)c4C(F)(F)F)c(Cl)cc23)C(C)C1
44.9 nM: IC50 (second compound 0.0316 µM)
59.1 nM: IC50 (second compound 0.1 µM)
inactive: viability, T/C (second compound 0.00316 µM, first compound 0.000316 µM) 93% | viability, T/C (second compound 0.00316 µM, first compound 0.001 µM) 138% | viability, T/C [37] 70.2% | viability, T/C [38] 62.3% | viability, T/C [1] 57.1% | viability, T/C [2] 42% | viability, T/C (second compound 0.01 µM, first compound 0.000316 µM) 93.5% | viability, T/C (second compound 0.01 µM, first compound 0.001 µM) 132% | viability, T/C [39] 96.7% | viability, T/C [40] 68.2% | viability, T/C [7] 48.2% | viability, T/C [8] 39.5% | viability, T/C (second compound 0.0316 µM, first compound 0.000316 µM) 99.8% | viability, T/C (second compound 0.0316 µM, first compound 0.001 µM) 148% | viability, T/C [41] 81.7% | viability, T/C [42] 78.3% | viability, T/C [13] 55.5% | viability, T/C [14] 41.1% | viability, T/C (second compound 0.1 µM, first compound 0.000316 µM) 107% | viability, T/C (second compound 0.1 µM, first compound 0.001 µM) 121% | viability, T/C [43] 86.5% | viability, T/C [44] 70.8% | viability, T/C [19] 65.7% | viability, T/C [20] 40.3% | viability, T/C (second compound 0.316 µM, first compound 0.000316 µM) 87.1% | viability, T/C (second compound 0.316 µM, first compound 0.001 µM) 126% | viability, T/C [45] 70.7% | viability, T/C [46] 68.7% | viability, T/C [25] 49.7% | viability, T/C [26] 46% | viability, T/C (second compound 1 µM, first compound 0.000316 µM) 79.9% | viability, T/C (second compound 1 µM, first compound 0.001 µM) 96.3% | viability, T/C [47] 97.7% | viability, T/C [48] 65.6% | viability, T/C [31] 65% | viability, T/C [32] 45.2%
100 nM: IC50 (second compound 0.00316 µM) | IC50 (second compound 0.316 µM)
25.2 nM: IC50 (second compound 0.01 µM)
80.9 nM: IC50 (second compound 1 µM)

CC(Nc1ccc2c(c1)OCCn1cc(N3C(=O)OCC3C(F)F)nc1-2)C(N)=O (stereo not given) + C=CC(=O)N1CCN(c2nc(OCC3CCCN3C)nc3c(F)c(-c4nc(N)cc(C)c4C(F)(F)F)c(Cl)cc23)C(C)C1
> 10000 nM: IC50 (second compound 0.00316 µM) | IC50 (second compound 0.01 µM) | IC50 (second compound 0.0316 µM) | IC50 (second compound 0.1 µM) | IC50 (second compound 0.316 µM) | IC50 (second compound 1 µM)
inactive: viability, T/C [1] 87.9% | viability, T/C [2] 124% | viability, T/C [3] 93.7% | viability, T/C [4] 67.5% | viability, T/C [5] 92.8% | viability, T/C [6] 86.4% | viability, T/C [7] 95.4% | viability, T/C [8] 139% | viability, T/C [9] 79.8% | viability, T/C [10] 66% | viability, T/C [11] 100% | viability, T/C [12] 89% | viability, T/C [13] 121% | viability, T/C [14] 128% | viability, T/C [15] 78.6% | viability, T/C [16] 67.9% | viability, T/C [17] 104% | viability, T/C [18] 96.2% | viability, T/C [19] 149% | viability, T/C [20] 130% | viability, T/C [21] 69.4% | viability, T/C [22] 66.8% | viability, T/C [23] 62.7% | viability, T/C [24] 85.1% | viability, T/C [25] 141% | viability, T/C [26] 139% | viability, T/C [27] 86.3% | viability, T/C [28] 79.8% | viability, T/C [29] 66.3% | viability, T/C [30] 102% | viability, T/C [31] 126% | viability, T/C [32] 147% | viability, T/C [33] 90.2% | viability, T/C [34] 64.9% | viability, T/C [35] 85.3% | viability, T/C [36] 89.8%

C[C@@H](NC(=O)c1ncnc(N)c1Cl)c1ncc(C(=O)Nc2cc(C(F)(F)F)c(Cl)cn2)s1 + C=CC(=O)N1CCN(c2nc(OCC3CCCN3C)nc3c(F)c(-c4nc(N)cc(C)c4C(F)(F)F)c(Cl)cc23)C(C)C1
> 10000 nM: IC50 (second compound 0.00316 µM) | IC50 (second compound 0.01 µM) | IC50 (second compound 0.0316 µM) | IC50 (second compound 0.1 µM) | IC50 (second compound 0.316 µM) | IC50 (second compound 1 µM)
inactive: viability, T/C [1] 119% | viability, T/C [2] 151% | viability, T/C [3] 88.8% | viability, T/C [4] 98.3% | viability, T/C [5] 77.7% | viability, T/C [6] 78.3% | viability, T/C [7] 95.5% | viability, T/C [8] 140% | viability, T/C [9] 94.5% | viability, T/C [10] 89.1% | viability, T/C [11] 91.9% | viability, T/C [12] 67.8% | viability, T/C [13] 115% | viability, T/C [14] 129% | viability, T/C [15] 92.8% | viability, T/C [16] 99.3% | viability, T/C [17] 88.2% | viability, T/C [18] 70.9% | viability, T/C [19] 120% | viability, T/C [20] 123% | viability, T/C [21] 102% | viability, T/C [22] 97.2% | viability, T/C [23] 98.7% | viability, T/C [24] 83.4% | viability, T/C [25] 86.7% | viability, T/C [26] 128% | viability, T/C [27] 104% | viability, T/C [28] 101% | viability, T/C [29] 106% | viability, T/C [30] 76.9% | viability, T/C [31] 89.1% | viability, T/C [32] 120% | viability, T/C [33] 108% | viability, T/C [34] 114% | viability, T/C [35] 86.4% | viability, T/C [36] 74.6%

O=C(c1ccc(F)c(F)c1Nc1ccc(I)cc1F)N1CC(O)([C@@H]2CCCCN2)C1 + C=CC(=O)N1CCN(c2nc(OCC3CCCN3C)nc3c(F)c(-c4nc(N)cc(C)c4C(F)(F)F)c(Cl)cc23)C(C)C1
> 1000 nM: IC50 (second compound 0.0316 µM) | IC50 (second compound 0.316 µM)
759 nM: IC50 (second compound 1 µM)
460 nM: IC50 (second compound 0.00316 µM)
inactive: viability, T/C [37] 105% | viability, T/C [38] 142% | viability, T/C [1] 73.3% | viability, T/C [2] 78.3% | viability, T/C [3] 58.1% | viability, T/C [4] 39.1% | viability, T/C [39] 120% | viability, T/C [40] 141% | viability, T/C [7] 88.3% | viability, T/C [8] 71.3% | viability, T/C [9] 56.6% | viability, T/C [10] 30.1% | viability, T/C [41] 146% | viability, T/C [42] 174% | viability, T/C [13] 75.4% | viability, T/C [14] 82.4% | viability, T/C [15] 56.4% | viability, T/C [16] 38.1% | viability, T/C [43] 138% | viability, T/C [44] 137% | viability, T/C [19] 91.1% | viability, T/C [20] 69.8% | viability, T/C [21] 60% | viability, T/C [22] 36.3% | viability, T/C [45] 154% | viability, T/C [46] 139% | viability, T/C [25] 73.1% | viability, T/C [26] 71.3% | viability, T/C [27] 56.7% | viability, T/C [28] 38.9% | viability, T/C [47] 137% | viability, T/C [48] 137% | viability, T/C [31] 82.2% | viability, T/C [32] 85.9% | viability, T/C [33] 61.2% | viability, T/C [34] 50.3%
290 nM: IC50 (second compound 0.01 µM)
365 nM: IC50 (second compound 0.1 µM)

From PubChem BioAssay AID2060899 (Molecular Pharmacology Branch, DTP, NCI, 2025)
